Here are results for 6 molecules from patent US6740679B1, “Nutritional supplement or pharmaceutical preparation comprising triglycerides with seven-carbon fatty acid” (Baylor University Medical Center, priority 1999, dated 2004).

The test system of assay [1] is fibroblasts with severe carnitine/acylcarnitine translocase deficiency (TRANSLOCASE). Put plainly: Tandem mass spectrometry assay of labeled fatty acid oxidation in cultured cells. The format is cell-based, human. The settings on record: translocase-deficient fibroblasts; for accumulation of labeled acylcarnitine of the precursor: m/z417 for D3-C16, m/z305 for D3-C8, m/z319 for D3-C9. The method, then:
(§1) Fibroblasts taken from the deceased sibling and amniocytes taken from the fetus were both evaluated for fatty acid metabolism of n-heptanoic acid (C7) using a tandem mass spectrometry assay previously reported. (Yang, et al. 1998. “Identification of four novel mutations in patients with carnitine palmitoyltransferase II (CPT II) deficiency,” Mol Genet Metab 64:229-236). […] Each cell line was incubated separately with 7-^2H3-heptanoate (D3-C7), 8-^2H3-octanoate (D3-C8), 9-^2H3-nonanoate (D3-C9), and 16-^2H3-palmitate (D3-C16).
(§2) The normal cell line and eleven abnormal cell lines were analyzed in groups of three. For quantitative purposes, labeled internal standards were included in each analysis and are designated as “IS” on the first profile in each group. The mass numbers for these standards are: m/z420 (^2H6-palmitate-C16), m/z308 (^2H6-octanoate-C8), m/z269 (^2H9-isovaleric-C5) , and m/z237 (^2H5-propionate-C3), wherein m/z is the mass:charge ratio.
(§3) This relative ammount of m/z235 (^2H3-propionate-C3) is compared to the level of the internal standards at m/z269 (^2H9-isovaleric-C5) and m/z237 (^2H5-propionate-C3).

Assay [2] concerns carnitine palmitoyltransferase I (CPT I) deficient fibroblasts. Put plainly: Tandem mass spectrometry assay of labeled fatty acid oxidation. It is filed as cell-based, human. As to the method: as §1, §2, §3
For assay [3], the system named is carnitine palmitoyltransferase II (CPT II) deficient fibroblasts. The assay is described as above. The format is cell-based, human. The following applies: for accumulation of labeled acylcarnitine of the precursor: m/z417 for D3-C16, m/z319 for D3-C9. The method, then:
as §1, §2, §3

In assay [4] the test system is VLCAD-C (cardiac form of very-long-chain acyl-CoA dehydrogenase) deficient fibroblasts. The description is as above. The format is cell-based, human. As to the method:
as §1, §2, §3

Assay [5] concerns electron transfer flavoprotein QO dehydrogenase-severe (ETF-DH severe) deficient fibroblasts. The assay is described as above. It is filed as cell-based, human. As to the method: as §1, §2, §3
Assay [6] deals with long-chain L-3-hydroxy-acyl-CoA dehydrogenase (LCHAD) deficient fibroblasts. The description is as above. It is filed as cell-based, human. As to the method: as §1, §2, §3
Assay [7] relates to electron transfer flavoprotein QO dehydrogenase-mild (ETF-DH mild) deficient fibroblasts. The description is as above. It is filed as cell-based, human. As to the method: as §1, §2, §3
In assay [8] the test system is medium-chain acyl-CoA dehydrogenase (MCAD) deficient fibroblasts. Described as above. It is filed as cell-based, human. The settings on record: for accumulation of labeled acylcarnitine: C8 m/z305.3 from D3-C16, m/z305 for D3-C8, m/z291 heptanoylcarnitine for D3-C7. As to the method: as §1, §2, §3
For assay [9], the system named is VLCAD-H (hypoglycemic form of very-long-chain acyl-CoA dehydrogenase) deficient fibroblasts. The description is as above. It is filed as cell-based, human. As to the method:
as §1, §2, §3

For assay [10], the system named is mitochondrial trifunctional protein (TRIFUNCTIONAL) deficient fibroblasts. Described as above. The format is cell-based, human. As to the method: as §1, §2, §3
The test system of assay [11] is short-chain acyl-CoA dehydrogenase (SCAD) deficient fibroblasts. The assay is described as above. The format is cell-based, human. As to the method:
as §1, §2, §3

Assay [12] deals with normal fibroblasts. Described as above. It is filed as cell-based, human. An excerpt: Fibroblasts taken from the deceased sibling and amniocytes taken from the fetus were both evaluated for fatty acid metabolism of n-heptanoic acid (C7) using a tandem mass spectrometry assay previously reported. (Yang, et al. 1998. “Identification of four novel mutations in patients with carnitine palmitoyltransferase II (CPT II) deficiency,” Mol Genet Metab 64:229-236). The mass spectrometry results are presented for palmitate in FIG. 3A and triheptanoin in FIG. 3B for the fibroblasts taken from the deceased sibling, and for palmitate in FIG. 4A and triheptanoin in FIG. 4B for the amniocytes taken from the fetus. […]
The normal cell line and eleven abnormal cell lines were analyzed in groups of three. For quantitative purposes, labeled internal standards were included in each analysis and are designated as “IS” on the first profile in each group. […]

For assay [13], the system named is amniocytes from a fetus with severe translocase deficiency. Put plainly: Tandem mass spectrometry assay of fatty acid oxidation in amniocytes. It is filed as cell-based, human. The settings on record: translocase-deficient amniocytes. The source says: Because a sibling had died at the age of four days from severe translocase deficiency, amniocytes obtained from a fetus were examined for competency in fatty acid metabolism. […] Fibroblasts taken from the deceased sibling and amniocytes taken from the fetus were both evaluated for fatty acid metabolism of n-heptanoic acid (C7) using a tandem mass spectrometry assay previously reported. (Yang, et al. 1998. “Identification of four novel mutations in patients with carnitine palmitoyltransferase II (CPT II) deficiency,” Mol Genet Metab 64:229-236). […]

Assay [14] deals with fasting rats. The settings on record: rats fed the triglyceride; Anderson et al. 1975; cited from earlier work.

SMILES strings stand for the structures. Entries after “also recorded” stand apart in the source; their conditions may differ.

Take `[2H]C([2H])([2H])CCCCCC(=O)O` [D3-C7, 7-^2H3-heptanoate]: the “relative amount of 2H3-propionate-C3 (m/z235) produced” value in [1] (compared to normal cells), in assay [2] (compared to normal cells), in [3] (compared to normal cells), in assay [4] (compared to normal cells), in [6] (compared to normal cells) and in assay [9] (compared to normal cells) was “either comparable to or in excess of the amount seen in normal cells” each time. Also, the “relative amount of 2H3-propionate-C3 (m/z235) produced” value in assay [10] (compared to normal cells) and in assay [11] (compared to normal cells) was “either comparable to or in excess of the amount seen in normal cells” in each case. The “oxidation of the fatty acid (labeled acylcarnitine profile)” value in assay [5] and in assay [7] was “no oxidation of labeled 7-^2H3-heptanoate was observed” in each case. In assay [8], the “accumulation of labeled acylcarnitine” value was “markedly increased”.

`[2H]C([2H])([2H])CCCCCCC(=O)O` [D3-C8, 8-^2H3-octanoate]: the “accumulation of labeled acylcarnitine of the precursor” value (“accumulation … of the precursor” below) in assay [1] is on record as “relative accumulation of m/z 305”. In addition, in assay [8], the “accumulation of labeled acylcarnitine” value is reported as “relative accumulation of m/z 305”.

As to `[2H]C([2H])([2H])CCCCCCCC(=O)O` [D3-C9, 9-^2H3-nonanoate], the “accumulation … of the precursor” value in [1], in [3] and in [6] (m/z319 for D3-C9) was “an increase was observed at m/z319” in each case.

For `[2H]C([2H])([2H])CCCCCCCCCCCCCCC(=O)O` [D3-C16, 16-^2H3-palmitate], the “oxidation of the fatty acid (labeled acylcarnitine profile)” value in assay [1] was “no oxidation occurs”; in assay [2] it was “virtually no oxidation occurs”; in assay [3], “no oxidation occurs”; in assay [5] it was “abnormal profiles of labeled acylcarnitines”; in assay [7] it was “abnormal profiles of labeled acylcarnitines”; in [8], “oxidation clearly proceed down to the level of C8”. For the same molecule, in assay [11], the “oxidation of the fatty acid (labeled acylcarnitine profile)” value is listed as “oxidation stops at m/z249”. In addition, the “accumulation … of the precursor” value in assay [1] and in [3] was “large quantities of labeled palmitoylcarnitine” in each case. The “amount of labeled palmitoylcarnitine (m/z417)” value in [2] was “minimal amount”. Moreover, the “profile of labeled acylcarnitines” value in assay [4], in [6], in assay [9] and in assay [10] was “abnormal profiles of labeled acylcarnitines” in each case. Moreover, the “accumulation of labeled acylcarnitine” value in assay [8] is “marked accumulation”. Moreover, the “profile of labeled acylcarnitine intermediates” value in assay [12] was “from C16 down to and including C4”.

With `CCCCCCC(=O)O` [n-heptanoic acid], the “oxidation of the fatty acid (labeled acylcarnitine profile)” value in assay [1] is “successful oxidation; also recorded: readily oxidized to propionyl-CoA”. In [13], the “oxidation of the fatty acid” value is recorded as “readily oxidized to propionyl-CoA”.

`CCCCCCCCCCC(=O)OCC(COC(=O)CCCCCCCCCC)OC(=O)CCCCCCCCCC` [triundecanoin]: the “blood glucose levels during prolonged fasting” value in assay [14] is listed as “maintain nonfasting blood glucose levels during prolonged fasting”.
